Reference: ChEMBL document CHEMBL5214987, “Scaffold hopping via ring opening enables identification of acyclic compounds as new complement Factor D inhibitors” (Bioorg Med Chem, 2022)
Blank lines part the entries; values can stand above or below the compound they belong to.

How the values were obtained:
[1] = Cmax in male Sprague-Dawley rat at 2.5 mg/kg, iv; assay type: ADME, organism-based; design: dose 2.5 mg/kg, route iv; conditions: in vivo
[2] = Half-life in male Sprague-Dawley rat at 2.5 mg/kg, iv; assay type: ADME, organism-based; conditions: in vivo
[3] = Cmax in male Sprague-Dawley rat at 10 mg/kg, po; assay type: ADME, organism-based; design: dose 10 mg/kg, route po; conditions: in vivo
[4] = AUC (0 to 24 hrs) in male Sprague-Dawley rat at 2.5 mg/kg, iv; assay type: ADME, organism-based; design: time < 24 hr, dose 2.5 mg/kg, route iv; conditions: in vivo
[5] = Tmax in male Sprague-Dawley rat at 2.5 mg/kg, iv; assay type: ADME, organism-based; conditions: in vivo
[6] = Half-life in male Sprague-Dawley rat at 10 mg/kg, po; assay type: ADME, organism-based; conditions: in vivo
[7] = AUC (0 to 24 hrs) in male Sprague-Dawley rat at 10 mg/kg, po; assay type: ADME, organism-based; design: time < 24 hr, dose 10 mg/kg, route po; conditions: in vivo
[8] = Tmax in male Sprague-Dawley rat at 10 mg/kg, po; assay type: ADME, organism-based; conditions: in vivo
in vitro = conditions: rabbit, rabbit erythrocytes
Description: Hemolytic activity against rabbit erythrocytes incubated for 30 mins in presence of human serum and measured by hemolysis assay

[9] = Volume of distribution at steady state in male Sprague-Dawley rat at 2.5 mg/kg, iv; assay type: ADME, organism-based; conditions: in vivo, read-out: Vdss
[10] = AUClast in male Sprague-Dawley rat at 10 mg/kg, po; assay type: ADME, organism-based; design: time 0 - last, dose 10 mg/kg, route po; conditions: in vivo
[11] = Oral bioavailability in male Sprague-Dawley rat at 10 mg/kg; assay type: ADME, organism-based; conditions: in vivo
[12] = AUClast in male Sprague-Dawley rat at 2.5 mg/kg, iv; assay type: ADME, organism-based; design: time 0 - last, dose 2.5 mg/kg, route iv; conditions: in vivo
[13] = MRTlast in male Sprague-Dawley rat at 10 mg/kg, po; assay type: ADME, organism-based; conditions: in vivo
[14] = MRTlast at steady state in male Sprague-Dawley rat at 2.5 mg/kg, iv; assay type: ADME, organism-based; conditions: in vivo
[15] = Initial plasma concentration in male Sprague-Dawley rat at 2.5 mg/kg, iv; assay type: ADME, organism-based
[16] = Clearance in male Sprague-Dawley rat at 2.5 mg/kg, iv; assay type: ADME, organism-based; conditions: in vivo

Cmax [1]: 6740 ng/mL
half-life [2]: 298 min
Cmax [3]: 69.3 ng/mL
AUC(0-t) at 24 h [4]: 3410 ng·h/mL
Tmax [5]: 4.98 min
half-life [6]: 221 min
AUC(0-t) at 24 h [7]: 257 ng·h/mL
Tmax [8]: 30 min
SMILES: NC(=O)c1nn(CC(=O)N2CCC[C@H]2C(=O)NCc2cccc(Cl)c2F)c2ccccc12

IC50 at 30 min (in vitro): 73 nM
SMILES: CC(C)(C)NC(=O)Nc1ccc2c(c1)c(C(N)=O)nn2CC(=O)N(CC(=O)NCc1cccc(Cl)c1F)C1CC1

IC50 at 30 min (in vitro): 76 nM
SMILES: NC(=O)c1nn(CC(=O)N(CC(=O)NCc2cccc(Cl)c2F)C2CC2)c2ccc(NC(=O)NC3CCCCC3)cc12

IC50 at 30 min (in vitro): 34 nM
SMILES: CC(C)(C)OC(=O)Nc1ccc2c(c1)c(C(N)=O)nn2CC(=O)N(CC(=O)NCc1cccc(Cl)c1F)C1CC1

IC50 at 30 min (in vitro): 17 nM
SMILES: NC(=O)c1nn(CC(=O)N(CC(=O)NCc2cccc(Cl)c2F)C2CC2)c2ccc(NC(=O)N3CCN(Cc4ccc(F)cc4)CC3)cc12

IC50 at 30 min (in vitro): 64 nM
SMILES: NC(=O)c1nn(CC(=O)N(CC(=O)NCc2cccc(Cl)c2F)C2CC2)c2ccc(NC(=O)N3CCN(C4CC4)CC3)cc12

IC50 at 30 min (in vitro): 110 nM
SMILES: CCN(CC)CCNC(=O)Nc1ccc2c(c1)c(C(N)=O)nn2CC(=O)N(CC(=O)NCc1cccc(Cl)c1F)C1CC1

IC50 at 30 min (in vitro): 220 nM
SMILES: COC(=O)c1ccc2c(C(N)=O)nn(CC(=O)N(CC(=O)NCc3cccc(Cl)c3F)C3CC3)c2c1

IC50 at 30 min (in vitro): 17 nM
SMILES: NC(=O)c1nn(CC(=O)N(CC(=O)NCc2cccc(Cl)c2F)C2CC2)c2ccc(NC(=O)N3CCCC(F)(F)C3)cc12

half-life [2]: 24.6 min
Vd [9]: 0.3 L/kg
Cmax [3]: 113 ng/mL
AUC(0-t) [10]: 209 ng·h/mL
IC50 at 30 min (in vitro): 30 nM
half-life [6]: 69 min
bioavailability [11]: 1.7%
AUC(0-t) [12]: 3130 ng·h/mL
Tmax [8]: 30 min
MRT last [13]: 119 min
MRT last [14]: 21 min
C0 [15]: 9650 ng/mL
clearance [16]: 13.5 mL/min/kg
SMILES: CN1CCC(N(C)C(=O)Nc2ccc3c(c2)c(C(N)=O)nn3CC(=O)N(CC(=O)NCc2cccc(Cl)c2F)C2CC2)CC1
